Data: patent US6660501B2, “Production of proteins by cell culture” (Lonza Group, AG, priority 1986, dated 2003)

Legend:
[1] = test system: IgM secreting mouse hybridoma cell line NB1/19; assay: Effect of sodium butyrate on hybridoma cell growth and antibody production, serum-free medium, shake flasks (ELISA); type: cell-based
Method: (§1) The IgM secreting mouse hybridoma cell line NB1/19 was grown in suspension culture in Dulbeccos Modified Eagles Minimum (DMEM) serum-free medium containing albumin, insulin, transferrin, gentamycin and other additives as required to cultivate cells in suspension culture. The NB1/19 cell line produces a mouse monoclonal antibody having specificity for an antigenic determinant of human B-type blood cells. The preparation of this call line is described in detail in the specification of British Patent GB 2097425B. It will be appreciated, however, that other hybridoma cell lines may be used in place of this particular cell line as appropriate in this and other examples.
(§2) The cells were grown to a viable cell density of 1.0-1.5×10^6 cells/ml. Viable cell density was determined by counting the number of cells which exclude trypan blue, a staining agent. A sample of the suspension culture was diluted in a serum-free medium to a density of about 1.3×10^5 cells/ml. Aliquots of 50 ml in volume were dispensed into shake flasks and sodium butyrate added at concentrations of 0.1 mM, 0.3 mM, 0.5 mM and 1.0 mM.
(§3) The shake flasks were gassed with 5% CO2-95% air, and sealed and incubated with shaking at 37° C. for up to 207 hours. (Table 1). Samples ([…]) were removed from the culture by pipette. 100 μl was used to determine viable cell count and the reminder centrifuged at 300×g for five minutes. Supernatants were stored at −20° C. prior to antibody determination by enzyme linked immunosorbent assay (ELISA).

[2] = test system: hybridoma cells (as Example 1, NB1/19); assay: Butyrate-enhanced antibody production in hybridoma cells cultured in serum supplemented medium; type: cell-based, mouse; conditions: DMEM + 10% foetal calf serum
Method: as §1
The cells were grown to a viable cell density of 1.0-1.5×10^6 cells/ml. Viable cell density was determined by counting the number of cells which exclude trypan blue, a staining agent. A sample of the suspension culture was diluted in a serum-free medium to a density of about 1.3×10^5 cells/ml. […]
as §3
The protocol for this experiment is similar to that outlined in Example 1, except that the cells were cultured in Dulbeccos Modified Eagles Minimum medium supplemented with 10% foetal calf serum.

[3] = test system: CBMG human growth hormone producing cells; assay: Production of recombinant human growth hormone by CBMG cells (immunoradiometric assay); type: cell-based; conditions: serum-free maintenance medium, control 1.0
Method: The molecular biology of adherent CBMG human growth hormone producing cells has been described (G. N. Pavlakis et al PNAS (USA) Vol. 80 pp 397-401 (1983)).
CBMG cells were inoculated into tissue culture flasks at a density of 0.7×10^5 cells/cm^2 in Dulbeccos Modified Eagles Minimum (DMEM) supplemented with 10% foetal calf serum.
After the cells in culture had grown to confluency, the DMEM serum supplemented medium was replaced by serum-free DMEM maintenance medium. Sodium butyrate was added at 1 mM and 5 mM after transferring the cells from serum supplemented medium to maintenance medium. Levels of human growth hormone in the culture supernatant were measured after 48 hours by immunoradiometric assay.

hybridoma cell line A = assay: Harvest antibody titre, hybridoma cell line A; type: cell-based; conditions: SFM, control 28
Method: (§4) Hybridoma cells were grown in suspension culture in either serum-free medium (see Example 1) or in DMEM supplemented with 10% (v/v), heat inactivated foetal calf serum. Cells were cultured in either roller bottles or in shake-flasks, as in Example 1. Sodium butyrate was added to cultures immediately after inoculation.

hybridoma cell line B = assay: Harvest antibody titre, hybridoma cell line B; type: cell-based; conditions: SFM + 10% FCS, control 173
Method: as §4

hybridoma cell line D = assay: Harvest antibody titre, hybridoma cell line D; type: cell-based; conditions: SFM + 10% FCS, control 29
Method: as §4

hybridoma cell line E = assay: Harvest antibody titre, hybridoma cell line E; type: cell-based; conditions: SFM, control 46
Method: as §4

hybridoma cell line F = assay: Harvest antibody titre, hybridoma cell line F; type: cell-based; conditions: SFM + 5% FCS, 0.50 mM butyrate, control 90
Method: […] Cells were cultured in either roller bottles or in shake-flasks, as in Example 1. Sodium butyrate was added to cultures immediately after inoculation.

hybridoma cell line H = assay: Harvest antibody titre, hybridoma cell line H; type: cell-based; conditions: SFM, 0.50 mM butyrate, control 62
Method: as §4

hybridoma cell line J = assay: Harvest antibody titre, hybridoma cell line J; type: cell-based
Method: as §4

hybridoma cell line K = assay: Harvest antibody titre, hybridoma cell line K; type: cell-based; conditions: SFM + 1% FCS, 0.50 mM butyrate, control 15
Method: as §4

hybridoma cell line L = assay: Harvest antibody titre, hybridoma cell line L; type: cell-based; conditions: SFM, control 34
Method: as §4

Hybridoma cells = assay: Effect of sodium butyrate on a variety of hybridoma cell lines (summary statement); type: cell-based; conditions: butyrate added immediately after inoculation
Method: as §4

NT1/19 cells = assay: Effect of varying alkanoates on antibody production from hybridoma cells; type: cell-based; conditions: for AVERAGE DATA FROM EXP. #1 & #2: average of relative productivity, control 100.00; for PRODUCTIVITY EXP #2: control 2.39
Method: as §1, §2, §3
NT1/19 cells were cultured as in Example 1. Varying straight chain sodium alkanoate salts (propionate, butyrate, bentanoate or hexanoate) were added to the inoculum at the concentrations indicated in Table 5.

HeLa-cell cultures = conditions: cited from earlier work
[4] = test system: Syrian hamster cells with plasmid containing SV40 genome and HSV-TK gene; conditions: concentrations ranging from 1 mM to 5 mM; Yuan et al; cited from earlier work

CCCC(=O)[O-].[Na+] [sodium butyrate]
Average specific rate of antibody production ([1]; 0.1 mM sodium butyrate): 26 μg/10^6 cells/day | antibody concentration ([1]; 0.1 mM sodium butyrate, 41 hours): 34 µg/mL | antibody concentration ([1]; 0.1 mM sodium butyrate, 87 hours): 90 µg/mL | antibody concentration ([1]; 0.1 mM sodium butyrate, 137 hours): 128 µg/mL | Average specific rate of antibody production ([1]; 0.3 mM sodium butyrate): 26 μg/10^6 cells/day | antibody concentration ([1]; 0.3 mM sodium butyrate, 41 hours): 41 µg/mL | antibody concentration ([1]; 0.3 mM sodium butyrate, 87 hours): 114 µg/mL | antibody concentration ([1]; 0.3 mM sodium butyrate, 137 hours): 147 µg/mL | Average specific rate of antibody production ([1]; 0.5 mM sodium butyrate): 31 μg/10^6 cells/day | antibody concentration ([1]; 0.5 mM sodium butyrate, 41 hours): 50 µg/mL | antibody concentration ([1]; 0.5 mM sodium butyrate, 87 hours): 173 µg/mL | antibody concentration ([1]; 0.5 mM sodium butyrate, 137 hours): 173 µg/mL | Average specific rate of antibody production ([1]; 1.0 mM sodium butyrate): 52 μg/10^6 cells/day | antibody concentration ([1]; 1.0 mM sodium butyrate, 41 hours): 39 µg/mL | antibody concentration ([1]; 1.0 mM sodium butyrate, 137 hours): 180 µg/mL | antibody concentration ([1]; 1.0 mM sodium butyrate, 207 hours): 256 µg/mL | Average specific rate of antibody production ([2]; 0.5 mM sodium butyrate): 39 μg/10^6 cells/day | Maximum antibody concentration ([2]; 0.5 mM sodium butyrate): 54 µg/mL | Average specific rate of antibody production ([2]; 0.75 mM sodium butyrate): 69 μg/10^6 cells/day | Maximum antibody concentration ([2]; 0.75 mM sodium butyrate): 55 µg/mL | Concentration of hGH in supernatant ([3]; 1 mM sodium butyrate): 1.1 arbitrary units/48 hours | Concentration of hGH in supernatant ([3]; 5 mM sodium butyrate): 2.3 arbitrary units/48 hours | HARVEST ANTIBODY TITER (hybridoma cell line A; 0.35 mM butyrate): 35 mg/L | HARVEST ANTIBODY TITER (hybridoma cell line A; 0.50 mM butyrate): 36 mg/L | HARVEST ANTIBODY TITER (hybridoma cell line B; 0.35 mM butyrate): 232 mg/L | HARVEST ANTIBODY TITER (hybridoma cell line B; 0.50 mM butyrate): 240 mg/L | HARVEST ANTIBODY TITER (hybridoma cell line D; 0.35 mM butyrate): 39 mg/L | HARVEST ANTIBODY TITER (hybridoma cell line D; 0.50 mM butyrate): 50 mg/L | HARVEST ANTIBODY TITER (hybridoma cell line E; 0.35 mM butyrate): 56 mg/L | HARVEST ANTIBODY TITER (hybridoma cell line E; 0.50 mM butyrate): 86 mg/L | HARVEST ANTIBODY TITER (hybridoma cell line F): 132 mg/L | HARVEST ANTIBODY TITER (hybridoma cell line H): 109 mg/L | HARVEST ANTIBODY TITER (hybridoma cell line J; DMEM + 10% FCS, 0.50 mM butyrate, control 32): 54 mg/L | HARVEST ANTIBODY TITER (hybridoma cell line J; DMEM + 10% FCS, 0.75 mM butyrate, control 32): 55 mg/L | HARVEST ANTIBODY TITER (hybridoma cell line J; SFM, 0.50 mM butyrate, control 37): 72 mg/L | HARVEST ANTIBODY TITER (hybridoma cell line J; SFM, 1.00 mM butyrate, control 37): 102 mg/L | HARVEST ANTIBODY TITER (hybridoma cell line K): 26 mg/L | HARVEST ANTIBODY TITER (hybridoma cell line L; 0.25 mM butyrate): 50 mg/L | HARVEST ANTIBODY TITER (hybridoma cell line L; 0.50 mM butyrate): 58 mg/L | amount of antibody produced per cell (Hybridoma cells): increased the amount of antibody produced per cell | AVERAGE DATA FROM EXP. #1 & #2 (NT1/19 cells; 0.50 mM alkanoate): 204.39 | PRODUCTIVITY EXP #2 (NT1/19 cells; 0.50 mM alkanoate): 4.7 ug antibody per 10^5 cells | PRODUCTIVITY EXP. #1 (NT1/19 cells; 0.50 mM alkanoate, control 3.30): 7.00 ug antibody per 10^5 cells | AVERAGE DATA FROM EXP. #1 & #2 (NT1/19 cells; 1.00 mM alkanoate): 368.20 | PRODUCTIVITY EXP #2 (NT1/19 cells; 1.00 mM alkanoate): 8.80 ug antibody per 10^5 cells | human choriogonadotropin synthesis (HeLa-cell cultures; 1 mM, Ghosh et al, Cox & McClure): induce human choriogonadotropin synthesis | cell growth (HeLa-cell cultures; butyrate treatment): inhibited cell growth | expression of SV40 and HSV-TK genes compared with control values [4]: inhibited the expression of both genes
